We go through four compounds from patent US9873659B2, “Solutions of trialkali metal salts of MGDA with an excess of L-enantiomer, their manufacture and use” (BASF SE, priority 2014, dated 2018).

Series [1] is described as follows: Solubility experiments: concentrated aqueous solutions stored and checked for crystallization or precipitation. The class given is physicochemical. To be noted: for sign of crystallization or precipitation on storage: aqueous solution, 90 days at 20° C.; for solids content of the concentrated aqueous solution that stayed free of crystallization or precipitation: concentrated by evaporation of water at 70° C., cooled to ambient temperature, stable 90 days at 20° C. The method, then: In each case, the solubility refers to MGDA without hydrate water.
It was allowed to cool down to ambient temperature.
The aqueous solution of MGDA-K2.35Na0.65 obtained according to I.4 was concentrated by evaporation of a part of the water at 70° C. until the solids content was 65% by weight. It was allowed to cool down to ambient temperature.

The conditions of series [2]: room temperature; colder solutions may lead to precipitation; cited from earlier work.

Take “MGDA-K2.35Na0.65 [MGDA-K2.35Na0.65 obtained according to I.4]”: the “sign of crystallization or precipitation on storage” value (“sign” below) in series [1] (solids content 65% by weight) is on record as “did not show any sign of crystallization or precipitation”. The “solids content of the concentrated aqueous solution that stayed free of crystallization or precipitation” value in series [1] turned out to be 65 % by weight.

As to `CC(C(=O)[O-])N(CC(=O)[O-])CC(=O)[O-].[Na+].[Na+].[Na+]` (racemic) [racemic MGDA trisodium salt], the “concentration of aqueous solution that can be made and stored” value in series [2] is “about 40 % by weight”.

As for “MGDA-K2.35Na0.65 [MGDA-K2.35Na0.65 obtained according to I.3]”, in series [1] (solids content 61.1% by weight), the “sign” value is reported as “did not show any sign of crystallization or precipitation”. Besides, the “solids content of the concentrated aqueous solution that stayed free of crystallization or precipitation” value in series [1] came out at 61.1 % by weight.

Consider “MGDA-K2.35Na0.65 [MGDA-K2.35Na0.65 obtained according to I.2]”, for which the “sign” value in series [1] (solids content 64.5% by weight) was “did not show any sign of crystallization or precipitation”. Besides, in series [1], the “solids content of the concentrated aqueous solution that stayed free of crystallization or precipitation” value was 64.5 % by weight.
